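96-well plates; 48 h exposure; 5 concentrations. Endpoints by linear interpolation between flanking doses. Not reached: highest tested concentration assigned. The concentration for 50% growth inhibition is given as GI50. TGI is the concentration that stops growth completely.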
Columns and labels:
Experiment in all cases: DTP human tumour cell line panel, 48 h
[1] = system: SNB-19 CNS
[2] = system: OVCAR-8 ovarian
[3] = system: SK-MEL-2 melanoma
[4] = system: SN12C renal
[5] = system: OVCAR-5 ovarian
[6] = system: COLO 205 colon
[7] = system: SF-539 CNS
[8] = system: EKVX NSCLC
[9] = system: NCI/ADR-RES ovarian
[10] = system: U251 CNS

SMILES | GI50 [1] | TGI [1] | GI50 [2] | TGI [2] | GI50 [3] | TGI [3] | GI50 [4] | TGI [4] | GI50 [5] | TGI [5] | GI50 [6] | TGI [6] | GI50 [7] | TGI [7] | GI50 [8] | TGI [8] | GI50 [9] | TGI [9] | GI50 [10] | TGI [10]
COc1cc(-c2nc(-c3ccc(-c4nc5ccc(F)cc5[nH]4)cc3)no2)cc(OC)c1OC | 5.62 µM | > 100 µM | 2.36 µM | 7.61 µM | 4.21 µM | 13.4 µM | 3.59 µM | 38.3 µM | 5.59 µM | 34.5 µM | 4.77 µM | 17 µM | 3.38 µM | 18.7 µM | 3.45 µM | 27.4 µM | 2.49 µM | 8.26 µM | 3.03 µM | 28.8 µM
COc1cc(OC)c(F)c(COc2cnc(Nc3cnn(CCO)c3)nc2)c1F | 0.796 µM | > 100 µM | 2.24 µM | > 100 µM | 0.404 µM | 2.71 µM | 1.59 µM | > 100 µM | 2.08 µM | > 100 µM | 0.607 µM | 3.14 µM | 0.275 µM | 2.17 µM | 1.94 µM | > 100 µM | 0.726 µM | > 100 µM | 0.528 µM | > 30.8 µM
CCCCCCCCNC(C)C(O)c1ccc(SC(C)C)cc1 (centres undefined) | 1.64 µM | 3.28 µM | – | – | 2.05 µM | 3.74 µM | 1.57 µM | 3.13 µM | 1.76 µM | 3.23 µM | 1.62 µM | 3 µM | 1.9 µM | 3.4 µM | 1.44 µM | 2.98 µM | 1.57 µM | 3.17 µM | – | –
COc1ccc(-n2cc(-c3cc(OC)c(OC)c(OC)c3)[nH]c2=S)cc1Cl | 19.5 µM | 58.4 µM | 50.2 µM | > 100 µM | > 100 µM | > 100 µM | 46.7 µM | > 100 µM | 28.3 µM | > 100 µM | 70.8 µM | > 100 µM | 18.4 µM | 48.8 µM | 37.3 µM | > 100 µM | 27.5 µM | > 100 µM | 20 µM | 50.7 µM
CN1CCN(c2ccc3nc(-c4[nH]ncc4Nc4ncnc5c4OCCCN5)[nH]c3c2)CC1 | 0.0106 µM | 0.172 µM | 0.0176 µM | 0.593 µM | 0.0124 µM | 0.0468 µM | < 0.01 µM | 0.12 µM | 0.0121 µM | 0.163 µM | < 0.01 µM | 0.0157 µM | < 0.01 µM | 0.0214 µM | 0.0168 µM | 0.183 µM | 0.28 µM | 2.89 µM | < 0.01 µM | 0.123 µM
Nc1nccc2c1ccn2-c1cccc(NC(=O)c2ccc(N3CCOCC3)c(C(F)(F)F)c2)c1 | 1.58 µM | > 50 µM | 1.34 µM | 10.3 µM | 0.584 µM | 2.94 µM | 1.91 µM | > 50 µM | 1.84 µM | > 50 µM | – | – | 1.02 µM | 4 µM | 1.99 µM | > 50 µM | 0.361 µM | > 10.2 µM | 0.664 µM | 9.35 µM
CCCC(C)c1c(Cl)nc(Cl)nc1Cl (centres undefined) | – | 35.6 µM | – | 55.9 µM | – | > 100 µM | – | 48 µM | – | 39 µM | – | 15.8 µM | – | 19 µM | – | 36.9 µM | – | > 100 µM | – | 21.2 µM

Reference: PubChem BioAssay (NCI)
